tested on: mice and rats; assay: not given; conditions: in vivo
Method: The acute toxicity was determined for oral and intraperitoneal administration with mice and rats (6 mice and 2 rats in one dose group), and the LD50 value, i.e., the single application dose killing 50% of the test animals, was estimated.

| Compound | comparative toxicity |
| --- | --- |
| O=C(Nc1cc(Br)c(O)c(Br)c1)c1ccccc1O [Compound 3] | comparatively more toxic than the others |
| O=C(Nc1ccc(O)c(Br)c1)c1ccc(O)cc1O [Compound 5] | comparatively more toxic than the others |
| O=C(Nc1cc(Br)c(O)c(C(=O)O)c1)c1ccccc1O [Compound 6] | comparatively more toxic than the others |
| CCOc1c(Cl)cc(NC(=O)c2ccc(O)cc2O)cc1Br [Compound 15] | comparatively more toxic than the others |
| Cc1cc(NC(=O)c2ccc(Br)cc2O)cc(C(=O)O)c1O [Compound 19] | comparatively more toxic than the others |
| O=C(Nc1ccc(O)c(Cl)c1)c1cc(Br)ccc1O [Compound 20] | comparatively more toxic than the others |
| Cc1ccc(C(=O)Nc2cc(Br)c(O)c(Br)c2)c(O)c1 [Compound 22] | comparatively more toxic than the others |
| Nc1c(Cl)cc(NC(=O)c2ccccc2O)cc1Cl [Compound 24] | comparatively more toxic than the others |
| CCCC(=O)Oc1ccc(C(=O)Nc2cc(Cl)c(N)c(C(=O)OC)c2)c(OC(=O)CCC)c1 [Compound 42] | comparatively more toxic than the others |
| CCC(=O)Oc1ccc(OC(=O)CC)c(C(=O)Nc2cc(Cl)c(N)c(C(=O)OC)c2)c1 [Compound 43] | comparatively more toxic than the others |

tested on: acetic acid-induced stretching movements; assay: Analgesic Activity in mice (acetic acid stretching); format: in vivo, mice (DDY Strain); conditions: 50 mg./kg. i.p.; control (no drug) 53
Method: Male mice of the DDY Strain having mean body weight of 20 g. were divided to the groups of 10 animals each, to which compounds of this invention or aminopyrine in saline solution were administered intraperitoneally (i.p.). The dosage was 200, 50 or 12.5 mg./kg. Then 30 minutes later, 0.2 ml. per 20 g. body weight of 0.7% acetic acid in saline was injected intraperitoneally and the number of characteristic stretching movements counted for 20 minute period and compared with a control group receiving no analgesic.

| Compound | Analgesic Activity: Stretching Count (20 minutes) |
| --- | --- |
| Cc1c(N(C)C)c(=O)n(-c2ccccc2)n1C [Aminopyrine, reference compound] | 8 |
| O=C(Nc1ccc(O)c(Cl)c1)c1ccccc1O [Compound 2] | 30 |
| O=C(Nc1cc(Br)c(O)c(Br)c1)c1ccccc1O [Compound 3] | 17 |
| O=C(Nc1cc(Cl)c(O)c(Cl)c1)c1ccc(O)cc1O [Compound 4] | 13 |
| O=C(Nc1ccc(O)c(Br)c1)c1ccc(O)cc1O [Compound 5] | 14 |
| O=C(Nc1cc(Br)c(O)c(C(=O)O)c1)c1ccccc1O [Compound 6] | 25 |
| O=C(Nc1cc(Cl)c(O)c(C(=O)O)c1)c1ccccc1O [Compound 7] | 40 |
| Cc1ccc(C(=O)Nc2cc(Cl)c(O)c(Cl)c2)c(O)c1 [Compound 8] | 40 |
| O=C(Nc1cc(Cl)c(O)c(Cl)c1)c1ccc(F)cc1O [Compound 9] | 35 |
| O=C(Nc1cc(Cl)c(O)c(Cl)c1)c1cc(F)ccc1O [Compound 10] | 35 |
| CC(=O)Oc1ccccc1C(=O)Nc1cc(Cl)c(OC(C)=O)c(Cl)c1 [Compound 30] | 14 |
| CC(C)CC(=O)Oc1ccccc1C(=O)Nc1cc(Cl)c(OC(=O)CC(C)C)c(Cl)c1 [Compound 31] | 13 |

same assay, conditions: 200 mg./kg. i.p.; control (no drug) 53

| Compound | Analgesic Activity: Stretching Count (20 minutes) |
| --- | --- |
| Cc1c(N(C)C)c(=O)n(-c2ccccc2)n1C [Aminopyrine, reference compound] | 2 |
| O=C(Nc1ccc(O)c(Cl)c1)c1ccccc1O [Compound 2] | 12 |
| O=C(Nc1cc(Br)c(O)c(Br)c1)c1ccccc1O [Compound 3] | 6 |
| O=C(Nc1cc(Cl)c(O)c(Cl)c1)c1ccc(O)cc1O [Compound 4] | 6 |
| O=C(Nc1ccc(O)c(Br)c1)c1ccc(O)cc1O [Compound 5] | 6 |
| O=C(Nc1cc(Br)c(O)c(C(=O)O)c1)c1ccccc1O [Compound 6] | 12 |
| O=C(Nc1cc(Cl)c(O)c(C(=O)O)c1)c1ccccc1O [Compound 7] | 14 |
| Cc1ccc(C(=O)Nc2cc(Cl)c(O)c(Cl)c2)c(O)c1 [Compound 8] | 21 |
| O=C(Nc1cc(Cl)c(O)c(Cl)c1)c1ccc(F)cc1O [Compound 9] | 20 |
| O=C(Nc1cc(Cl)c(O)c(Cl)c1)c1cc(F)ccc1O [Compound 10] | 20 |
| CC(=O)Oc1ccccc1C(=O)Nc1cc(Cl)c(OC(C)=O)c(Cl)c1 [Compound 30] | 4 |
| CC(C)CC(=O)Oc1ccccc1C(=O)Nc1cc(Cl)c(OC(=O)CC(C)C)c(Cl)c1 [Compound 31] | 4 |

tested on: pyrexia induced by TTG No. 2; assay: Antipyretic Activity in Pyrexia-Induced Rabbits; format: in vivo, Japanese rabbits; conditions: 2 hrs. after TTG; 200 mg./kg. oral; control (no drug) 1.2
Method: Common white male Japanese rabbits, 2.0 - 3.0 kg. body weight, were injected through the ear vein with 20 μg./kg. of a pyrexia inducer TTG No. 2, purified polysaccharide preparation obtained from Pseudomonas aeruginosa (marketed by Fujisawa Pharmaceutical Company, Japan), and the body temperature was monitored with a rectal thermister-type thermometer. Three hours prior to the TTG injection four rabbits in each experimental section orally received the test drug in the dose of 200 mg./kg. One group received aspirin in a dose of 100 mg./kg and a control group no drug.

| Compound | Antipyretic Activity: Elevation of Body Temperature |
| --- | --- |
| Cc1c(N(C)C)c(=O)n(-c2ccccc2)n1C [Aminopyrine, reference compound] | 0.4 °C |
| O=C(Nc1ccc(O)c(Cl)c1)c1ccccc1O [Compound 2] | 0.6 °C |
| O=C(Nc1cc(Br)c(O)c(Br)c1)c1ccccc1O [Compound 3] | 0.6 °C |
| O=C(Nc1cc(Cl)c(O)c(Cl)c1)c1ccc(O)cc1O [Compound 4] | 0.5 °C |
| O=C(Nc1ccc(O)c(Br)c1)c1ccc(O)cc1O [Compound 5] | 0.5 °C |
| O=C(Nc1cc(Br)c(O)c(C(=O)O)c1)c1ccccc1O [Compound 6] | 0.5 °C |
| O=C(Nc1cc(Cl)c(O)c(C(=O)O)c1)c1ccccc1O [Compound 7] | 0.6 °C |
| Cc1ccc(C(=O)Nc2cc(Cl)c(O)c(Cl)c2)c(O)c1 [Compound 8] | 0.6 °C |
| O=C(Nc1cc(Cl)c(O)c(Cl)c1)c1ccc(F)cc1O [Compound 9] | 0.6 °C |
| O=C(Nc1cc(Cl)c(O)c(Cl)c1)c1cc(F)ccc1O [Compound 10] | 0.6 °C |
| CC(=O)Oc1ccccc1C(=O)Nc1cc(Cl)c(OC(C)=O)c(Cl)c1 [Compound 30] | 0.5 °C |
| CC(C)CC(=O)Oc1ccccc1C(=O)Nc1cc(Cl)c(OC(=O)CC(C)C)c(Cl)c1 [Compound 31] | 0.6 °C |

same assay, conditions: 4 hrs. after TTG; 200 mg./kg. oral; control (no drug) 1.6

| Compound | Antipyretic Activity: Elevation of Body Temperature |
| --- | --- |
| Cc1c(N(C)C)c(=O)n(-c2ccccc2)n1C [Aminopyrine, reference compound] | 0.3 °C |
| O=C(Nc1ccc(O)c(Cl)c1)c1ccccc1O [Compound 2] | 0.5 °C |
| O=C(Nc1cc(Br)c(O)c(Br)c1)c1ccccc1O [Compound 3] | 0.5 °C |
| O=C(Nc1cc(Cl)c(O)c(Cl)c1)c1ccc(O)cc1O [Compound 4] | 0.4 °C |
| O=C(Nc1ccc(O)c(Br)c1)c1ccc(O)cc1O [Compound 5] | 0.4 °C |
| O=C(Nc1cc(Br)c(O)c(C(=O)O)c1)c1ccccc1O [Compound 6] | 0.5 °C |
| O=C(Nc1cc(Cl)c(O)c(C(=O)O)c1)c1ccccc1O [Compound 7] | 0.5 °C |
| Cc1ccc(C(=O)Nc2cc(Cl)c(O)c(Cl)c2)c(O)c1 [Compound 8] | 0.5 °C |
| O=C(Nc1cc(Cl)c(O)c(Cl)c1)c1ccc(F)cc1O [Compound 9] | 0.6 °C |
| O=C(Nc1cc(Cl)c(O)c(Cl)c1)c1cc(F)ccc1O [Compound 10] | 0.5 °C |
| CC(=O)Oc1ccccc1C(=O)Nc1cc(Cl)c(OC(C)=O)c(Cl)c1 [Compound 30] | 0.5 °C |
| CC(C)CC(=O)Oc1ccccc1C(=O)Nc1cc(Cl)c(OC(=O)CC(C)C)c(Cl)c1 [Compound 31] | 0.5 °C |

target: T1, histidine decarboxylase (Rattus norvegicus, UniProt P16453); assay: Inhibition of Histidine Decarboxylase (14C-histamine formation); format: biochemical, fetal rats; conditions: not given
T1 construct: a crude enzyme preparation obtained from fetal rats; from tissue
T1 sequence (P16453 1-656): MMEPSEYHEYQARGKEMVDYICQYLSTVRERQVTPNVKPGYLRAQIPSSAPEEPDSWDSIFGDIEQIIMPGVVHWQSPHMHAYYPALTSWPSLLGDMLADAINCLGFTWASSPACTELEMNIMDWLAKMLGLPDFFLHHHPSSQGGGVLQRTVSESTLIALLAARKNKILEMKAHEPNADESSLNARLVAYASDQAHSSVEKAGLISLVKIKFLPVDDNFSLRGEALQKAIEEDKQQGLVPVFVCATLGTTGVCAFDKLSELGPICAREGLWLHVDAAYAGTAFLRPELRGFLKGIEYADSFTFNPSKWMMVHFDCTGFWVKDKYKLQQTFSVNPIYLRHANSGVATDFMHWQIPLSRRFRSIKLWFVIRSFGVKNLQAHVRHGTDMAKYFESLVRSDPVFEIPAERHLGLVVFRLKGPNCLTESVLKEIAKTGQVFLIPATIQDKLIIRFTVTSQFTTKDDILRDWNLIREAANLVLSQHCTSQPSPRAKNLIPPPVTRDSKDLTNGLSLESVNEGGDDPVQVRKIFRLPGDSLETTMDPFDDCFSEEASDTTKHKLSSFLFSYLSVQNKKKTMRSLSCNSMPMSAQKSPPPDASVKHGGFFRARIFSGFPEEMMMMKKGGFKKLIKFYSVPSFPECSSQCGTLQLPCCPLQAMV
Method: After two hours of incubation at 37° C., the histamine 2-^14 C formed was collected on an ion exchange resin ("Amberlite" CG-50, ammonia type) from which, after washing with water, the histamine was liberated in 1N aqueous ammonia solution and radioactivity was measured.

| Compound | IC50 |
| --- | --- |
| O=C(Nc1cc(Br)c(O)c(Br)c1)c1ccccc1O [Compound 3] | 23 nM |
| Cc1ccc(C(=O)Nc2cc(Cl)c(O)c(Cl)c2)c(O)c1 [Compound 8] | 96 nM |
| O=C(Nc1ccc(O)c(Cl)c1)c1cc(Br)ccc1O [Compound 20] | 580 nM |
| Cc1ccc(C(=O)Nc2cc(Br)c(O)c(Br)c2)c(O)c1 [Compound 22] | 800 nM |

same assay, conditions: pH 6.8, two hours at 37° C.; read-out: Histidine Decarboxylase Inhibition ID50

| Compound | IC50 |
| --- | --- |
| O=C(Nc1ccc(O)c(Cl)c1)c1ccccc1O [Compound 2] | 2500 nM |
| O=C(Nc1cc(Cl)c(O)c(Cl)c1)c1ccc(O)cc1O [Compound 4] | 28 nM |
| O=C(Nc1ccc(O)c(Br)c1)c1ccc(O)cc1O [Compound 5] | 30 nM |
| O=C(Nc1cc(Br)c(O)c(C(=O)O)c1)c1ccccc1O [Compound 6] | 260 nM |
| O=C(Nc1cc(Cl)c(O)c(C(=O)O)c1)c1ccccc1O [Compound 7] | 110 nM |
| O=C(Nc1cc(Cl)c(O)c(Cl)c1)c1ccc(F)cc1O [Compound 9] | 89 nM |
| O=C(Nc1cc(Cl)c(O)c(Cl)c1)c1cc(F)ccc1O [Compound 10] | 230 nM |
| CCOc1c(Cl)cc(NC(=O)c2ccc(O)cc2O)cc1Br [Compound 15] | 310 nM |
| Cc1cc(NC(=O)c2ccc(Br)cc2O)cc(C(=O)O)c1O [Compound 19] | 330 nM |
| Nc1c(Cl)cc(NC(=O)c2ccccc2O)cc1Cl [Compound 24] | 140 nM |
| CC(=O)Oc1ccccc1C(=O)Nc1cc(Cl)c(OC(C)=O)c(Cl)c1 [Compound 30] | 24 nM |
| CC(C)CC(=O)Oc1ccccc1C(=O)Nc1cc(Cl)c(OC(=O)CC(C)C)c(Cl)c1 [Compound 31] | 17 nM |
| CCCC(=O)Oc1ccc(C(=O)Nc2cc(Cl)c(N)c(C(=O)OC)c2)c(OC(=O)CCC)c1 [Compound 42] | 510 nM |
| CCC(=O)Oc1ccc(OC(=O)CC)c(C(=O)Nc2cc(Cl)c(N)c(C(=O)OC)c2)c1 [Compound 43] | 530 nM |

Reference: patent US4091097A, “Treatment of elevated histamine and uric acid levels” (Zaidan Hojin Biseibutsu Kagaku Kenkyu Kai, priority 1973, dated 1978)
